Test system: increased blood flow through the facial skin caused by endogenous CGRP
Experiment: Facial skin blood flow increase after trigeminal ganglion stimulation in marmosets (laser Doppler)
Type: in vivo
Settings: anaesthetised marmosets; i.v. 5 min before the 2nd and 3rd stimulation periods; trigeminal ganglion stimulation 10Hz, 2 mA, 2 msec, for 30 sec
Source text: The efficacy of the following test substances was characterised by determining the dose administered i.v. which reduces by 50% the increased blood flow through the skin of the face which has been brought about by endogenous CGRP: • (A) =1-[N^2-[3,5-dibromo-N-[[4-(3,4-dihydro-2(1H)-oxoquinazolin-3-yl)-1-piperidinyl]carbonyl]-D-tyrosyl]-L-lysyl]-4-(4-pyridinyl)-piperazine, • (B) =1-[4-amino-3,5-dibromo-N-[[4-(2,3,4,5-tetrahydro-2(1 H)-oxo-1,3-benzodiazepin-3-yl)-1-piperidinyl]carbonyl]-D-phenylalanyl]-4-(1-piperidinyl)-piperidine, • (AC) =(R,S)-1-[4-[4-(3,4-dihydro-2(1H)-oxoquinazolin-3-yl)-1-piperidinyl]-2-[(3,5-dibromo-4-methylphenyl)methyl]-1,4-dioxobutyl]-4-(4-methyl-1-piperazinyl)-piperidine, • (AM) =1-[4-amino-3,5-dibromo-N-[[4-(3,4-dihydro-2(1H)-oxoquinazolin-3-yl)-1-piperidinyl]carbonyl]-D-phenylalanyl]-4-(1-piperidinyl)-piperidine, • (DA =sumatriptan and • (DB) =zolmitriptan. Description of Method:
Marmosets of both sexes (300-400 g) are anaesthetised with pentobarbital (initially with 30 mg/kg, i.p., followed by infusion of 6 mg/kg/h, […].). The body temperature is maintained at 37° C. using a heating plate. Pancurmium is administered as a muscle relaxant (initially 1 mg/kg, 0.5 mg after each hour thereafter). The animal's head is secured in a stereotactical apparatus. After the skin on the head has been opened using a lengthwise incision, a small hole is drilled in the skull and a bipolar electrode (Rhodes SNES 100) is lowered into the trigeminal ganglion.
The petrous bone serves as a guide for placing the electrode (CCX-Digital X-ray apparatus). The position of the electrode in the ganglion is monitored at the end of each experiment. The stimulation parameters are: • 10Hz, 2 mA, 2 msec, for 30 sec.
The blood flow in the micro-vessels of the facial skin is determined by laser Doppler flow measurement using a PeriFlux Laser Doppler System.
The animals are exposed to 2 to 3 stimulation periods at intervals of 30 min in each case. The first stimulation serves as a reference value for the other stimulations. The test substances are administered i.v. 5 min before the 2nd and 3rd stimulation periods.

Compound | 50% dose = i.v. dose which reduces by 50% the increased blood flow through the facial skin caused by endogenous CGRP [mg/kg]
Cc1c(Br)cc(C[C@H](CC(=O)N2CCC(N3Cc4ccccc4NC3=O)CC2)C(=O)N2CCC(N3CCN(C)CC3)CC2)cc1Br (racemic) [Substance AC, (R,S)-1-[4-[4-(3,4-dihydro-2(1H)-oxoquinazolin-3-yl)-1-piperidinyl]-2-[(3,5-dibromo-4-methylphenyl)methyl]-1,4-dioxobutyl]-4-(4-methyl-1-piperazinyl)-piperidine] | 0.018
NCCCC[C@H](NC(=O)[C@@H](Cc1cc(Br)c(O)c(Br)c1)NC(=O)N1CCC(N2Cc3ccccc3NC2=O)CC1)C(=O)N1CCN(c2ccncc2)CC1 [Substance A, 1-[N^2-[3,5-dibromo-N-[[4-(3,4-dihydro-2(1H)-oxoquinazolin-3-yl)-1-piperidinyl]carbonyl]-D-tyrosyl]-L-lysyl]-4-(4-pyridinyl)-piperazine] | 0.003
Nc1c(Br)cc(C[C@@H](NC(=O)N2CCC(N3Cc4ccccc4NC3=O)CC2)C(=O)N2CCC(N3CCCCC3)CC2)cc1Br [Substance AM, 1-[4-amino-3,5-dibromo-N-[[4-(3,4-dihydro-2(1H)-oxoquinazolin-3-yl)-1-piperidinyl]carbonyl]-D-phenylalanyl]-4-(1-piperidinyl)-piperidine] | 0.046
Nc1c(Br)cc(C[C@@H](NC(=O)N2CCC(N3CCc4ccccc4NC3=O)CC2)C(=O)N2CCC(N3CCCCC3)CC2)cc1Br [Substance B, 1-[4-amino-3,5-dibromo-N-[[4-(2,3,4,5-tetrahydro-2(1H)-oxo-1,3-benzodiazepin-3-yl)-1-piperidinyl]carbonyl]-D-phenylalanyl]-4-(1-piperidinyl)-piperidine] | 0.042
CNS(=O)(=O)Cc1ccc2[nH]cc(CCN(C)C)c2c1 [Substance DA, sumatriptan, reference compound] | 0.280
CN(C)CCc1c[nH]c2ccc(C[C@H]3COC(=O)N3)cc12 [Substance DB, zolmitriptan, reference compound] | 0.035
